Measurements published in patent US12708641B2 (priority 2020, dated 2026).

What was measured:
Type in all cases: cell-based
[1] = tested on: rat HEV replicon LA-B350/luc; assay: antiviral activity against rat HEV replicon LA-B350/luc in Huh7 cells (Gaussia luciferase); conditions: Huh-7, 72 h, 3 days, 50% reduction in Luc signal, two experiments
[2] = tested on: HEV Genotype 3 replicon Kernow-C1 p6/luc; assay: antiviral activity against HEV Genotype 3 replicon Kernow-C1 p6/luc in Huh7 cells (Gaussia luciferase); conditions: Huh-7, 96 h, 4 days, 4PL model, two experiments, read-out: relative EC50
[3] = viability evaluation (MTS/PMS) of replicon RNA-transfected Huh7 cells, Example 2; conditions: human, highest tested concentration 50 μM
Description: Obtained values are expressed as percent inhibition of untreated RNA-transfected control condition.

[4] = viability evaluation (MTS/PMS) of Kernow-C1 p6/luc RNA-transfected Huh7 cells, Example 3; conditions: human, highest tested concentration 50 μM, read-out: relative CC50
Description: For viability evaluation, medium was removed and cells were subsequently incubated with MTS/PMS solution (3-(4,5-dimethylthiazol-2-yl)-5-(3-carboxymethoxyphenyl)-2-(4-sulfophenyl)-2H-tetrazolium/phenazinemethosulfate), which is metabolized to produce a brown, water-soluble product that is quantified after 1 h at 37° C. by absorbance read-out at 498 nm. Obtained values are expressed as percentage of untreated RNA-transfected control condition.

SMILES	EC50 [1] [nM]	EC50 [2] [nM]	CC50 [3] [nM]	CC50 [4] [nM]
CC(C)OC(=O)[C@H](C)N[P@](=O)(OC[C@@]1(F)O[C@@H](n2ccc(=O)[nH]c2=O)[C@](C)(O)[C@@H]1O)Oc1ccccc1 [Compound 7]	110	42	–	–
CC(C)OC(=O)OCOP(=O)(OCOC(=O)OC(C)C)OC[C@@]1(F)O[C@@H](n2ccc(=O)[nH]c2=O)[C@](C)(O)[C@@H]1O [Compound 9]	4800	> 50000	–	–
CCOc1nc(N)nc2c1ncn2[C@@H]1O[C@](F)(COP(=O)(N[C@@H](C)C(=O)OC(C)C)Oc2ccccc2)[C@@H](O)[C@@]1(C)F (stereo partly drawn) [Compound 4]	36	6.5	> 50000	–
CC(C)OC(=O)OCOP(=O)(OCOC(=O)OC(C)C)OC[C@@]1(F)O[C@@H](n2ccc(=O)[nH]c2=O)[C@](C)(F)[C@@H]1O [Compound 11]	7300	720	–	–
CCOc1nc(N)nc2c1ncn2[C@@H]1O[C@](F)(COP(=O)(OCOC(=O)OC(C)C)OCOC(=O)OC(C)C)[C@@H](O)[C@@]1(C)F [Compound 3]	9.9	12	–	–
CCOc1nc(N)nc2c1ncn2[C@@H]1O[C@]2(F)CO[P@@](=O)(N[C@H](C)C(=O)OC(C)C)O[C@H]2[C@@]1(C)F [Compound 8]	860	220	–	–
C=CCOP1(=O)OC[C@@]2(F)O[C@@H](n3cnc4c(OCC)nc(N)nc43)[C@](C)(F)[C@@H]2O1 (stereo partly drawn) [Compound 10]	5700	1300	> 50000	–
CCOc1nc(N)nc2c1ncn2[C@@H]1O[C@](F)(COP(=O)(OCOC(=O)OC(C)C)OCOC(=O)OC(C)C)[C@@H](O)[C@@]1(C)O [Compound 6]	23	26	–	–
CCOc1nc(N)nc2c1ncn2[C@@H]1O[C@](F)(COP(=O)(N[C@@H](C)C(=O)OC2CCCCC2)Oc2ccccc2)[C@@H](O)[C@@]1(C)O (stereo partly drawn) [Compound 2]	8.9	11	–	–
CCOc1nc(N)nc2c1ncn2[C@@H]1O[C@](F)(CO[P@](=O)(N[C@@H](C)C(=O)OC2CCCCC2)Oc2ccccc2)[C@@H](O)[C@@]1(C)F [Compound 1]	< 0.64	13	> 50000	≤ 50000
